One data set has as its system Colon 08. Put plainly: tumor growth delay assay, Colon 08. The format is in vivo, mouse (CD2F1 hybrid). On the set-up: key to Rating: Tx: Toxic; ++++: High Activity; +++: Marked Activity; ++: Moderate Activity; +: Slight Activity; -: Inactive; UT: Unsatisfactory Test. Particulars: 15 mg/kg (dose of greatest activity), IP. The method, then: (§1) A test protocol to show activity of the compounds of the present invention against solid tumors was that described below, for example, in inhibiting the growth of colon tumors.
(§2) The tumor growth delay assay assesses the antitumor activity of a test agent by measurement of the treatment-induced delay of tumor growth.
(§3) Test animals were CD2F1 hybrid mice derived from the inbred strain of tumor origin. After the required mice were randomized they received 30-50 mg subcutaneous implants of either colon 36 or colon 8 by trocar on Day 0. Samples of each donor tumor were incubated in thioglycolate media as a check for contamination of the tumor material. After tumor inoculation mice were rerandomized and distributed at 10 mice per treatment group (20 for control).
(§4) Drug treatment was initiated when tumors reached measurement in two dimensions by the formula:
(§5) tumor weight (mg)=(a+b^2)
(§6) where a and b are the tumor length and width, respectively. Drug, suspended in methyl-cellulose, was administered intraperitoneally Q4HX3 for nine consecutive days in a range of toxic to nontoxic doses. Tumor-bearing control groups were injected with methyl-cellulose. Animal survival was monitored daily. Tumors were measured twice weekly and animal weights recorded on a weekly basis. All dead mice were autopsied to determine the cause of death (drug or tumor). Any mouse bearing a tumor larger than the smallest lethal control tumor for two consecutive measurements was sacrificed, provided that greater than 25 days had elapsed since last treatment. Any tumor-free mouse was retained long enough so that a single surviving tumor cell at last treatment could grow to an unmistakable subcutaneous tumor.
(§7) T/C was calculated based on the difference in days required for the treated (T) and control (C) groups to reach an evaluation size of 1000 mg. Gross and net logs of cell kill were determined based on standard methodologies. The degree of activity or rating is a function of cell kill. Activity is defined in accordance with the standard methodologies as follows: […]

In a further data set the test system is Colon 36. The experiment in a line: tumor growth delay assay, Colon 36. The format is in vivo, mouse (CD2F1 hybrid). On the set-up: key to Rating: Tx: Toxic; ++++: High Activity; +++: Marked Activity; ++: Moderate Activity; +: Slight Activity; -: Inactive; UT: Unsatisfactory Test. Particulars: 9.5 mg/kg (dose of greatest activity), IP. The procedure:
as §1, §2, §3, §4, §5, §6, §7

Another data set relates to L1210 leukemia cells. Put plainly: in vivo assay for antileukemic activity (median lifespan). On the set-up: species or system mouse (male CD2 F1); key to % T/C Animals (1): Tx = Toxic. The following applies: IP once daily Days 3-7. The procedure: Another test protocol is the in vivo assay for antileukemic activity. This assay is carried out with male CD2 F1 mice (six per treatment group) that weigh 22-24 grams at first treatment. L1210 leukemia cells are harvested from the peritoneal ascites fluid of a leukemic male DBA2 mouse and diluted with sterile 0.9% saline containing 2.1% W/V bovine serum albumin, 2000 U/ml penicillin, and 0.3 mg/ml streptomycin. The cells are counted with a Coulter counter. The mice are randomized, inoculated with 10^4 L1210 cells (0.5 ml, IP), and rerandomized to treatment or control groups on Day 0. The test compound is dissolved in 10% aqueous dimethylsulfoxide. Treatment groups are injected IP with 0.5 ml of freshly made DMSO solutions of the test compound once daily on Days 3-7. Control mice are treated with 0.5 ml 10% dimethylsulfoxide. All mice are weighed on Days 3 and 7 and all dying mice are autopsied to confirm the presence of advanced leukemia. A % T/C value [T/C computed as (median lifespan of the treated group/median lifespan of the control group)] greater than 125 is considered as showing significant activity. The results for nucleotide compounds and compositions of the invention exemplified by 3'-acetyl-2-chloro-2'-deoxy-5'-adenylic acid, monosodium salt, are presented in Table I.

A short description of a further data set: water solubility. The format is physicochemical.
The conditions of data set [1]: mammals and Phase 1 clinical trial in patients; Carson et al. 1984; cited from earlier work.
Setting [2] is: difference in days to reach 1000 mg.

In brackets after ≈: the same amount, converted by molar mass.

Consider `CC(=O)O[C@H]1C[C@H](n2cnc3c(N)nc(Cl)nc32)O[C@@H]1COP(=O)([O-])O.O.[Na+]` [Example 1, 2-Chloro-2'-deoxy-5'-adenylic Acid, 3'-acetate, Monosodium Salt, Monohydrate], for which the Rating entry in the data set on Colon 08 is recorded as “+”; with Colon 36, “++”. Further, the T/C was determined as 12.9 in the data set with Colon 08 (setting [2]) and 14.0 in the data set on Colon 36 (setting [2]). The “Net Kill” value was 0.4 with Colon 08 (net logs of cell kill) and 0.6 in the data set on Colon 36 (net logs of cell kill). Also, the “% T/C Animals (1)” value is 124% in the data set with L1210 leukemia cells (48 mg/kg, >125 significant); 126% in the data set with L1210 leukemia cells (77 mg/kg, >125 significant); “Tx” with L1210 leukemia cells (124 mg/kg); “Tx” in the data set with L1210 leukemia cells (200 mg/kg). In addition, the “% T/C Animals (2)” value in the data set with L1210 leukemia cells (48 mg/kg, >125 significant) was 149%; in the data set with L1210 leukemia cells (77 mg/kg, >125 significant), 112%; in the data set on L1210 leukemia cells (124 mg/kg, >125 significant), 87%.

By solubility is commonly meant the dissolved amount per volume that the medium holds. Consider `Nc1nc(Cl)nc2c1ncn2[C@H]1C[C@H](O)[C@@H](CO)O1` [2-chloro-2'-deoxyadenosine], for which the “water solubility (in words)” value in “water solubility” is “sparingly soluble in water”. The solubility in the data set “water solubility” (in water) is ~1000 µg/mL (≈ 3.5 mM). Besides, the “antileukemic and immunosuppressive activity” value in data set [1] was “antileukemic and immunosuppressive activity”.

Values taken from US4908441A, “Deoxyadenosine compounds and methods of making and using the same” (Warner-Lambert Company, priority 1988, dated 1990).
